Active and inactive are the calls of the source.
Key:
[1] = target: T1, Heat shock factor protein 1 (Mus musculus, UniProt P38532); assay: inhibition of MG132-induced HSE-luciferase signal, confirmation, cell-based, NIH3T3, luminescence, dose retest (AID 2382); format: functional;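 further: NIH3T3 fibroblasts with HSF1-driven luciferase reporter stressed by proteasome inhibitor MG132; luminescence from HSF1-driven luciferase expression after 8 hours of MG132 stress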
T1 sequence (P38532 whole entry): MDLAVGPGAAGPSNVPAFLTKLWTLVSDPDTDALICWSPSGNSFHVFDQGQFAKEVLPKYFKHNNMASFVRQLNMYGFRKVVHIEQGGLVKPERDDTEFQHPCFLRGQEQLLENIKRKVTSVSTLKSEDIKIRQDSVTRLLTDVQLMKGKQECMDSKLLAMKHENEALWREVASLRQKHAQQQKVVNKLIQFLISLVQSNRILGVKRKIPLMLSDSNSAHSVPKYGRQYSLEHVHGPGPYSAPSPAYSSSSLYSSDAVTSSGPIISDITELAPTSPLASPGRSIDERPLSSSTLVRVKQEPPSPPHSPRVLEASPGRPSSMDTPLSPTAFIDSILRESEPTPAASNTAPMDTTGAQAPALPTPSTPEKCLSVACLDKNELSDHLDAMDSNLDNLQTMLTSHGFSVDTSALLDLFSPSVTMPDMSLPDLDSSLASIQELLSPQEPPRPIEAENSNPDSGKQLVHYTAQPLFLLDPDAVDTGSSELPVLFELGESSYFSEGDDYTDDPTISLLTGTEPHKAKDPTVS

[2] = target: Cytochrome P450 2C19 (Homo sapiens, UniProt P33261); assay: Cytochrome panel assay with activity outcomes. Panel member name: p450-cyp2c19 Compounds with AC50 equal or less than 10 uM are considered active; format: functional; conditions: read-out: AC50
Chain of Cytochrome P450 2C19 (P33261 whole entry): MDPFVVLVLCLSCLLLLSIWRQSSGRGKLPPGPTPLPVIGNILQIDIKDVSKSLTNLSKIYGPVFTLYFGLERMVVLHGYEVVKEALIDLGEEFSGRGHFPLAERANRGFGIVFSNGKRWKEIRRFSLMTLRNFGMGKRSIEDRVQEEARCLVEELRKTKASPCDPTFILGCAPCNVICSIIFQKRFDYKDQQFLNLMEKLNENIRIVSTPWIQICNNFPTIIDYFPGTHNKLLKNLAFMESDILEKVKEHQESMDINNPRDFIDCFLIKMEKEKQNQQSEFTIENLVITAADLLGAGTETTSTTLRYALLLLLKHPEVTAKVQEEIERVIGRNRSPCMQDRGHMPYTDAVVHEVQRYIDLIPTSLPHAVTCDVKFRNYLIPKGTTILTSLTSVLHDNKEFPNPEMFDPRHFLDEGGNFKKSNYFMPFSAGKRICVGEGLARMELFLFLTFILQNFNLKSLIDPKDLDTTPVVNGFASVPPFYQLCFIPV

[3] = target: Cytochrome P450 2C9 (Homo sapiens, UniProt P11712)
Chain of Cytochrome P450 2C9 (P11712 whole entry): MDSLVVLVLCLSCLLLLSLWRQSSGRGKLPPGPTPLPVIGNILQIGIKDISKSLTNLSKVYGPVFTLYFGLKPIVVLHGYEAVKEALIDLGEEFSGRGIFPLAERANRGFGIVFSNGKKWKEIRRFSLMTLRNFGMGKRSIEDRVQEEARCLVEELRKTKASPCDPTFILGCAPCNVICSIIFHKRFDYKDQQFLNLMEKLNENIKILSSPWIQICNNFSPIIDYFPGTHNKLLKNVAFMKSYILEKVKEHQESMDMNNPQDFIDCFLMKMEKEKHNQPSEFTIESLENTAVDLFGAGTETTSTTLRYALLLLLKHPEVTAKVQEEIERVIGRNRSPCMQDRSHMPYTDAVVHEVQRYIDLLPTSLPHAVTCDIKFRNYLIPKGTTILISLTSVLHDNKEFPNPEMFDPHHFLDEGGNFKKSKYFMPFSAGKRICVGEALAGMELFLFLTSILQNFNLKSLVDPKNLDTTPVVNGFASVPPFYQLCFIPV

[4] = target: T2, Cytochrome P450 1A2 (Homo sapiens, UniProt P05177);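 further: PubChem cytochrome P450 panel assay, CYP1A2 panel member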
T2 sequence (P05177 whole entry): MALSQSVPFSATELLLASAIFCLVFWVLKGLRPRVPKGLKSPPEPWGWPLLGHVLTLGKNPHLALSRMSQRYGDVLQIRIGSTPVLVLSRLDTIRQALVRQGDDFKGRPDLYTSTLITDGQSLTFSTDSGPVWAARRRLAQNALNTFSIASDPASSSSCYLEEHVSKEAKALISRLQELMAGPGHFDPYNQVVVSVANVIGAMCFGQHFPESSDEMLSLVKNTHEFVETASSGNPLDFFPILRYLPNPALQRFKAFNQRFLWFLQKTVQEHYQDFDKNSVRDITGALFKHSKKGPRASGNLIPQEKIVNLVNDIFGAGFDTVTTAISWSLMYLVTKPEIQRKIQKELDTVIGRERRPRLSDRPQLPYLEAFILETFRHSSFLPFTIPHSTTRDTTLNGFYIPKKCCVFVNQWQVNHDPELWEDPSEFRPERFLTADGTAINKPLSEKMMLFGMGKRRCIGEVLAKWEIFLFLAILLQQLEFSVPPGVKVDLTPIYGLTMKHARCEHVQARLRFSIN

[5] = Luminescence Cell-Based Dose Confirmation HTS to Identify Activators of 5'UTR Stem-Loop Driven Alpha-Synuclein mRNA Translation in H4 Neuroglioblastoma Cells. [Related pubchem assays: 1829 (Project Summary), 1814 (Primary HTS)]; format: functional
[6] = system: H4; assay: Luminescence Cell-Based Dose Response HTS to Identify Activators of 5'UTR Stem-Loop Driven Prion Protein mRNA Translation in H4 Neuroglioblastoma Cells. [Related pubchem assays: 1829 (Project Summary), 1814 (Primary HTS)]; format: functional; conditions: Homo sapiens
[7] = Luminescence Cell-Based Dose Response HTS to Identify Activators of Luciferase Translation or Activity in H4 […] Cells. [Related pubchem assays: 1829 (Project Summary), 1814 (Primary HTS)]; format: functional
[8] = target: Cytochrome P450 3A4 (Homo sapiens, UniProt P08684);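 further: CYP3A4 tested as one member of a cytochrome P450 panel screen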
Chain of Cytochrome P450 3A4 (P08684 whole entry): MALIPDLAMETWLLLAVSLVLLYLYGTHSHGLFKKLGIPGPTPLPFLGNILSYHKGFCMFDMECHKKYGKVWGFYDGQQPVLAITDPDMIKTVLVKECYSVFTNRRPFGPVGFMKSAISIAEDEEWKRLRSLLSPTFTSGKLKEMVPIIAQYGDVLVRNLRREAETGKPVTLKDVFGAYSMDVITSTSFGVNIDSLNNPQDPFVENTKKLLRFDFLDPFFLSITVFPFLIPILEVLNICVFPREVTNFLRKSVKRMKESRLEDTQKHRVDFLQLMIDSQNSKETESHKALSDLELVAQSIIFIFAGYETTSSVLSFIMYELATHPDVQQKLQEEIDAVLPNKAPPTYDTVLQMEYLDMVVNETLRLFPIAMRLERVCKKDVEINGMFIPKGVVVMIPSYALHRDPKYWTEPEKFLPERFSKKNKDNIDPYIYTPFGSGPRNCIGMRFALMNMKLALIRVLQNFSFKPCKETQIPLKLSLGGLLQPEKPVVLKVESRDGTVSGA

[9] = Luminescence Cell-Based Dose Retest to Confirm Inhibitors of Cancer Stem Cells. [Related pubchem assays (depositor defined):AID2717, AID2721]; format: functional; conditions: Homo sapiens
[10] = inhibitors of intracellular T. cruzi replication, confirmation, NIH3T3 host cells, beta-gal luminescence (AID 2044); format: functional, cell-based;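 further: intracellular parasites grown in NIH/3T3 mouse fibroblasts as host cells; luminescent beta-galactosidase reporter signal from transgenic T. cruzi replicating inside host cells; inhibitors lower the luminescence signal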
[11] = cytotoxicity toward NIH3T3 fibroblasts, dose response, counter-screen, cell-based, ATP luminescence, mouse fibroblasts (AID 2010); format: functional;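 further: cells exposed to compound for about 90 hours before reading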

Structure (SMILES): CC(=O)NC1=NN(C(C)=O)C(c2ccccn2)S1 (centres undefined)
- EC50 [1]: > 195 µM (not active)

Structure (SMILES): CN(C)C(=O)c1ccc(-c2nc(Nc3ccncc3)c3ccccc3n2)cc1
- AC50 [2]: 39.8 µM (inconclusive)

Structure (SMILES): CN1CCc2ccccc2[C@@H]1Cc1ccccc1NC(=O)c1sc2ccccc2c1Cl
- AC50 [3]: 3.16 µM (inconclusive)
- AC50 [4]: 5.01 µM (inconclusive)

Structure (SMILES): COc1cc(O)c2c(O)c3c(c4c2c1[C@@]1(C4)C(C)=CCCC1(C)C)[C@H](O)[C@@]1(O)CC(O)=C(C(N)=O)C(=O)[C@]1(O)C3=O
- AC50 [3]: 3.16 µM (inconclusive)
- AC50 [4]: 3.16 µM (inconclusive)

Structure (SMILES): Cc1cc(NC(=O)c2ccc3nc(C)sc3c2)no1
- EC50 [1]: 0.167 µM (active)

Structure (SMILES): Clc1ccc(COn2ccnc2)cc1Cl
- EC50 [5]: > 120 µM (not active)
- EC50 [6]: > 120 µM (not active)
- EC50 [7]: > 120 µM (not active)

Structure (SMILES): CCOC(=O)C1=C(O)C(Nc2nccs2)(C(F)(F)F)N=C1C (centres undefined)
- AC50 [3]: 35.5 µM (inconclusive)

Structure (SMILES): Cc1cnc(CNc2cc(-c3cccnc3)ncn2)cn1
- AC50 [8]: 15.8 µM (inconclusive)
- AC50 [4]: 15.8 µM (inconclusive)

Structure (SMILES): O=S(=O)(c1ccccc1)c1c[nH]c(O)n1
- EC50 [1]: > 195 µM (not active)

Structure (SMILES): Cc1cccc(-c2nnc(SCc3ccccc3)o2)c1
- AC50 [3]: 39.8 µM (inconclusive)

Structure (SMILES): FC(F)(F)c1cc(-c2ccc(Cl)cc2)nc(NCc2cccnc2)n1
- AC50 [9]: 7.33 µM (active)
- EC50 [10]: 1.01 µM (active)
- EC50 [11]: > 60 µM (not active)

Structure (SMILES): C=CCNc1nnnc2c1sc1nc(N3CCOCC3)c3c(c12)CCCC3
- EC50 [1]: > 195 µM (not active)

Structure (SMILES): O=c1c(-c2cccc(F)c2)nc2cncnc2n1Cc1ccccc1Cl
- AC50 [8]: 15.8 µM (inconclusive)

Structure (SMILES): N#C/C(=C\c1ccc(O)c(O)c1)C(=O)OCCc1cccs1
- AC50 [8]: 20 µM (inconclusive)

Structure (SMILES): Cc1ccc(NC(S)=Nc2ccc(Br)cc2)cc1
- AC50 [8]: 14.1 µM (inconclusive)

Structure (SMILES): CCOC(=O)C1(S(=O)(=O)c2ccccc2)CCN(Cc2ccccc2)CC1
- AC50 [3]: 11.2 µM (inconclusive)

Structure (SMILES): COc1cc(SC)ccc1C(=O)OCC(=O)NC1CCCC1
- EC50 [1]: > 195 µM (not active)

Structure (SMILES): CCc1c(C(=O)OC)ncc2[nH]c3cc(OC)c(OC)cc3c12
- AC50 [8]: 15.8 µM (inconclusive)

Structure (SMILES): COC(=O)c1cc(/C=C/c2ccccc2)[nH]n1
- EC50 [5]: 25.4 µM (active)
- EC50 [6]: 18.1 µM (active)
- EC50 [7]: 6.84 µM (active)

Structure (SMILES): C=CCn1c(CCCNC(=O)C(C)(C)C)nc2ccccc21
- EC50 [1]: > 195 µM (not active)

Structure (SMILES): O=C(Cc1ccccc1F)Nc1ccc(S(=O)(=O)N2CCCCC2)cc1
- EC50 [1]: > 195 µM (not active)

Structure (SMILES): CC(=O)c1ccc(-n2nnnc2SCC(=O)Nc2cccc(NC(=O)c3ccco3)c2)cc1
- AC50 [3]: 7.08 µM (inconclusive)

Structure (SMILES): Cc1ccc(C2=NCCn3c2c2ccc(C(F)(F)F)cc2[n+]3[O-])cc1
- EC50 [1]: > 195 µM (not active)

Structure (SMILES): O=C(c1ccccn1)c1cc2ccccc2n1S(=O)(=O)c1ccccc1
- EC50 [5]: 20.5 µM (active)
- EC50 [7]: 55.9 µM (active)
